# Activity calls are given as the source filed them.
# Legend:
# [1] = biological target: Melanin-concentrating hormone receptor 1 (Homo sapiens, UniProt Q99705); experiment: Fluorescence-based counterscreen for antagonists of the G-protein coupled receptor 7 (GPR7): cell-based high throughput dose response assay to identify antagonists of the melanin-concentrating hormone receptor 1 (MCHR1).; format: functional
# Mucolipin-3 = biological target: T1, Mucolipin-3 (Homo sapiens, UniProt Q8TDD5); experiment: Dose response cell-based high-throughput screening assay for agonists of the transient receptor potential channel ML3 (TRPML3). [Related pubchem assays: 1526, 1424, 1448 ]; format: functional
# T1 sequence (Q8TDD5 whole entry): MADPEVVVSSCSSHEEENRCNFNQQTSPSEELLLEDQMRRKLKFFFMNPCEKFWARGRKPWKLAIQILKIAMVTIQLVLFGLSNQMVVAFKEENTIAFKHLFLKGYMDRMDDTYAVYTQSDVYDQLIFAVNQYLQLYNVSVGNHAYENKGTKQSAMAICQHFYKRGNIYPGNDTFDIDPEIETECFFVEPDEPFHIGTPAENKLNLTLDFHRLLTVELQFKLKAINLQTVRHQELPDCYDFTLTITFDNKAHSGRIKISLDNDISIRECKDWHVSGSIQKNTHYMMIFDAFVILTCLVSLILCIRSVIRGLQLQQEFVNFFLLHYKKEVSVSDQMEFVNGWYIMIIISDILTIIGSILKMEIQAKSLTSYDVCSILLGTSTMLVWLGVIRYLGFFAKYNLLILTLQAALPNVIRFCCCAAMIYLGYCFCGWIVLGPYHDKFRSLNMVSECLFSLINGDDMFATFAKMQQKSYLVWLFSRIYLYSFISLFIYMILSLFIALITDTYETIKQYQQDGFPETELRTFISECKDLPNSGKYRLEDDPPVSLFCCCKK
# [2] = biological target: Voltage-dependent T-type calcium channel subunit alpha-1H (Homo sapiens, UniProt O95180); format: functional;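 further: channel activity triggered by adding a high calcium stimulation buffer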
# Ion channel NompC = Ion channel NompC (Danio rerio, UniProt Q7T1G6); experiment: Fluorescence counterscreen assay for TRPML3 agonists: dose response cell-based high-throughput screening assay to identify agonists of the transient receptor potential channel N1 (TRPN1). [Related pubchem assays: 1526, 1424, 1448 ]; format: functional
# Sequence of Ion channel NompC (Q7T1G6 whole entry): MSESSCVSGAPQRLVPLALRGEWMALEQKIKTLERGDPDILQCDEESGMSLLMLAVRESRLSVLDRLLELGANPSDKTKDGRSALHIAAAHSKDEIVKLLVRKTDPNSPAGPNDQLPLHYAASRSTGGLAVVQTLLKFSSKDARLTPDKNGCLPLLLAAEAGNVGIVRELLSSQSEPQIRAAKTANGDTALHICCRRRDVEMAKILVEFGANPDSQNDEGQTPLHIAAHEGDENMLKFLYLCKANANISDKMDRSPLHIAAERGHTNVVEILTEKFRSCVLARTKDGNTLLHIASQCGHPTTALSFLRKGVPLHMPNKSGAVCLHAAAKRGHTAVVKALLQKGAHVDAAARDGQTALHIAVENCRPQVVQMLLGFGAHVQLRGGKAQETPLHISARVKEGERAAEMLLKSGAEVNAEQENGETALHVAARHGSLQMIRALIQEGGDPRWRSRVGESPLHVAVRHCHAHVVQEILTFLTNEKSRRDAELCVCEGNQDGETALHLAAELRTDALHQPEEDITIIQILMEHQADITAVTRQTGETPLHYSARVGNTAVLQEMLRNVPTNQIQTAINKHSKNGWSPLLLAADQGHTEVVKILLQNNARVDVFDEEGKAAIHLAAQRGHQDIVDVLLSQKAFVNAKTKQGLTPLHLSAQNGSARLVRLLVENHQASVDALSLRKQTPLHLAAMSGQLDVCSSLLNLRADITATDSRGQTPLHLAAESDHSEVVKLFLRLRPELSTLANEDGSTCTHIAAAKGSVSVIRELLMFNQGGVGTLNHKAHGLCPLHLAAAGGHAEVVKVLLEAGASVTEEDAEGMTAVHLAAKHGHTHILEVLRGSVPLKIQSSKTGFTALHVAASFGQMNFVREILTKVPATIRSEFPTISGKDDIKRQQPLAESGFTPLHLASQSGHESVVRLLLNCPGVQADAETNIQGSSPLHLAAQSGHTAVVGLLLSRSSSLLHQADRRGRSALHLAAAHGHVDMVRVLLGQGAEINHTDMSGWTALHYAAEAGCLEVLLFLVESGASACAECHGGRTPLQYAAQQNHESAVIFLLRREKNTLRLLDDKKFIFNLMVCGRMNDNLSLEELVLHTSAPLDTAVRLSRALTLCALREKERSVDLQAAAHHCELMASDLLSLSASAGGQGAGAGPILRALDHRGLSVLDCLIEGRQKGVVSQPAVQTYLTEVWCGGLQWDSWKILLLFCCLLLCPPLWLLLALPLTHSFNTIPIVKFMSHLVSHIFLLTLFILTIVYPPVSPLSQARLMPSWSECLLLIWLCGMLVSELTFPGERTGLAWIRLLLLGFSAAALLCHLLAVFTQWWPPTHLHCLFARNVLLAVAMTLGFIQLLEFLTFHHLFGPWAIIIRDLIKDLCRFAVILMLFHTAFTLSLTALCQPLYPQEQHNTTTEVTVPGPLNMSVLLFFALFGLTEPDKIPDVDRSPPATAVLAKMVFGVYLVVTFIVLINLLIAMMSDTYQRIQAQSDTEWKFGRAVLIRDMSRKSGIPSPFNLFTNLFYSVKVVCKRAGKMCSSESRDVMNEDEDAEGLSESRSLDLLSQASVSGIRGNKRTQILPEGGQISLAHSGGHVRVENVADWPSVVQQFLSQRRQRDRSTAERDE
# [3] = biological target: Polyadenylate-binding protein 1 (Homo sapiens, UniProt P11940); experiment: PABP poly(A) RNA binding inhibitors, primary screen, biochemical, fluorescence polarization, uHTS (AID 2014)
# Sequence of Polyadenylate-binding protein 1 (P11940 whole entry): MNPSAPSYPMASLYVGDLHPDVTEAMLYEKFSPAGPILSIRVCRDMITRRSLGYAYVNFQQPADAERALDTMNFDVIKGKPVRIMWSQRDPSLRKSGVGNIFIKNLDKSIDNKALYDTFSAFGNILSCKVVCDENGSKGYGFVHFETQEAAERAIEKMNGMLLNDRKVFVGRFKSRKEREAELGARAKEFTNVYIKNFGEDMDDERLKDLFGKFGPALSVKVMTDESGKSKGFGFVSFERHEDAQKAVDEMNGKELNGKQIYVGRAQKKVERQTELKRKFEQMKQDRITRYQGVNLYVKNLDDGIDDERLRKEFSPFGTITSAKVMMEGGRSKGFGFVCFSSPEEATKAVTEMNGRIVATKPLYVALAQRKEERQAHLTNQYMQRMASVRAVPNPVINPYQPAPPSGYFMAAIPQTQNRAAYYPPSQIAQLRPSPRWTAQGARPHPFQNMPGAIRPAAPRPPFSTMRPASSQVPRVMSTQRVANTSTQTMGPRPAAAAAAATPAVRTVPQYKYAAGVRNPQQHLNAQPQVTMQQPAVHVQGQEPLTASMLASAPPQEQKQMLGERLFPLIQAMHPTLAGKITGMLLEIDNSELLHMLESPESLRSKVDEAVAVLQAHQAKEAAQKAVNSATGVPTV
# [4] = biological target: Eukaryotic translation initiation factor 4H (Homo sapiens, UniProt Q15056); experiment: human eIF4H binding inhibitors, primary screen, translation initiation inhibitor project, biochemical, uHTS, fluorescence polarization (AID 2012)
# [5] = biological target: T2, Mannose-6-phosphate isomerase (Homo sapiens, UniProt P34949); experiment: human PMI inhibitors, high substrate, primary screen, biochemical, fluorescence intensity, high mannose 6-phosphate (AID 1220)
# T2 sequence (P34949 whole entry): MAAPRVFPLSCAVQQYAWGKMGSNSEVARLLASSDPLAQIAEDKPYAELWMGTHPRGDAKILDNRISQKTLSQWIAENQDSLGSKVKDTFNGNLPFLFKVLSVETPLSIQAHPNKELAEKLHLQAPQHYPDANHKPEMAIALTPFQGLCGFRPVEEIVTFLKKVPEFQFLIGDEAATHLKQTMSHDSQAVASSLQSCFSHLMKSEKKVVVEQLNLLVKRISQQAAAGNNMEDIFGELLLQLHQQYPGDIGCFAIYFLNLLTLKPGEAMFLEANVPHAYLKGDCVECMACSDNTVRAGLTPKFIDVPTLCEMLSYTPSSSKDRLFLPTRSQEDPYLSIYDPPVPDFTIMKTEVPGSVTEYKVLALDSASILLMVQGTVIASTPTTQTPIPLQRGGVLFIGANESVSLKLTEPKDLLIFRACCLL
# [6] = A cytotoxicity screen of small molecule inhibitors of the PhoP region in Salmonella typhi identified in the primary screen. [Related pubchem assays: 1850, 1864, 1985 ]; format: functional
# [7] = biological target: T3, Carboxy-terminal domain RNA polymerase II polypeptide A small phosphatase 1 (Homo sapiens, UniProt Q9GZU7); experiment: inhibitors of CTDSP1, concentration-response testing, biochemical assay, absorbance-based, actives from ultra-high-throughput screening (AID 540297); format: functional
# T3 sequence (Q9GZU7 whole entry): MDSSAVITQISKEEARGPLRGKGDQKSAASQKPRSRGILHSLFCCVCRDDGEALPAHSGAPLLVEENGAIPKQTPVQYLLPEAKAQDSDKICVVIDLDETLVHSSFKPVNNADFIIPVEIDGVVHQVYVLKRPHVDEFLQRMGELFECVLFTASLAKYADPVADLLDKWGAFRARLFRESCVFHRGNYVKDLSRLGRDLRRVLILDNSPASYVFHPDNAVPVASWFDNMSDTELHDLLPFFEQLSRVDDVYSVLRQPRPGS
# Aminopeptidase N = Aminopeptidase N (Plasmodium falciparum FcB1/Columbia, UniProt O96935); experiment: P. falciparum M1AAP inhibitors, biochemical, fluorogenic H-Leu-NHMec substrate, 1536-well (AID 1445); design: species or system Plasmodium falciparum 3D7, 3D7
# Sequence of Aminopeptidase N (O96935 whole entry): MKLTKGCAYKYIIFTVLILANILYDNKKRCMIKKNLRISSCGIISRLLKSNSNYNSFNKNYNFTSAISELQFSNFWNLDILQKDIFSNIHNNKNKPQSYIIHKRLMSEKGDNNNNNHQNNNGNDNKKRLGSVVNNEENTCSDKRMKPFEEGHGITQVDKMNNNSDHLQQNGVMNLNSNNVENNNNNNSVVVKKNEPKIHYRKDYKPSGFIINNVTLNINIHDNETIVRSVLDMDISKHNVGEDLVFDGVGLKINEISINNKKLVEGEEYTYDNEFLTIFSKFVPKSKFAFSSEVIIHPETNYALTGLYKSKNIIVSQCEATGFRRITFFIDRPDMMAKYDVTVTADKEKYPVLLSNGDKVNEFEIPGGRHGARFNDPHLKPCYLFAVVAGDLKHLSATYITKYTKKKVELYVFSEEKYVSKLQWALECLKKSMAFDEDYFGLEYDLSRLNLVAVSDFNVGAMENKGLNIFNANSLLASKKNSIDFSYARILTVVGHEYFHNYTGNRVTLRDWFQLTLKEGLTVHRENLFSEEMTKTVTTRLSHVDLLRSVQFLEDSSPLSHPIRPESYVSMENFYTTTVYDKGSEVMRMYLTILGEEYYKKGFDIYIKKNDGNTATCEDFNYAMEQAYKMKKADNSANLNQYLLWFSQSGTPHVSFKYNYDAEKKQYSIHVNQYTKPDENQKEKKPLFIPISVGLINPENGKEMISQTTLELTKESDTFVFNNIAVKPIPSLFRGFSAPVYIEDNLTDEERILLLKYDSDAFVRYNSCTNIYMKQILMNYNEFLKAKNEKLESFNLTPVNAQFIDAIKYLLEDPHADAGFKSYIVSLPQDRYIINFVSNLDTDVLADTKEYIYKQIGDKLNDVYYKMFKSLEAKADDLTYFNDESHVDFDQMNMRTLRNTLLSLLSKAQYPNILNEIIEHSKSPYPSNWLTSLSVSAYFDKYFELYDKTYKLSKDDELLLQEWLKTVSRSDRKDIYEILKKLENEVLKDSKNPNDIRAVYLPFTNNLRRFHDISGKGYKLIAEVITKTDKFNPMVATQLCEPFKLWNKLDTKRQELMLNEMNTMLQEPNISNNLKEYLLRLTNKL
# Nonstructural protein 1 = Nonstructural protein 1 (Influenza A virus, UniProt Q194T2); format: functional, Influenza A virus (A/California/07/2009(H1N1))
# Sequence of Nonstructural protein 1 (Q194T2 whole entry): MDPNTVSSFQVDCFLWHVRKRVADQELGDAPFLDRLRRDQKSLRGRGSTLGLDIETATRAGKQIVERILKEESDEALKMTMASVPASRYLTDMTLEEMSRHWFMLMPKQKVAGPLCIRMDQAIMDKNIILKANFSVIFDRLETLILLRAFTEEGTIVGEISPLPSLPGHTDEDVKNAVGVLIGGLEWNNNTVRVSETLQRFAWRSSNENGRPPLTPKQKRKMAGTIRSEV
# [8] = biological target: T4, Alkaline phosphatase, tissue-nonspecific isozyme (Homo sapiens, UniProt P05186)
# T4 sequence (P05186 whole entry): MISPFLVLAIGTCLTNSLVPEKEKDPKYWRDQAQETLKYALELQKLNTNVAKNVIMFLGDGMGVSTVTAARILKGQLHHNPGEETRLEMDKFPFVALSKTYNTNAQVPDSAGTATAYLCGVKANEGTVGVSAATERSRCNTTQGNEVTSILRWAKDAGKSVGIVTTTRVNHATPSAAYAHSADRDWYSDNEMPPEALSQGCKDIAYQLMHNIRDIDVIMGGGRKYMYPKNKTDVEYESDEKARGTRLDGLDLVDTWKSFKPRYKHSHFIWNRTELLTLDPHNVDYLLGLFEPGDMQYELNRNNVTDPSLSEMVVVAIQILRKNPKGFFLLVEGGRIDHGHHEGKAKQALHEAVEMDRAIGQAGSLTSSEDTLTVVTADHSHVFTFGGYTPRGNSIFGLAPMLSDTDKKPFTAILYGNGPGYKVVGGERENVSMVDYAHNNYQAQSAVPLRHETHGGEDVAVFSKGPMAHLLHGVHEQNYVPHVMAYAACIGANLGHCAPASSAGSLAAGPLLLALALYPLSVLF
# Escherichia coli = experiment: microbe, parasite or virus in culture
# Sequence of Melanin-concentrating hormone receptor 1 (Q99705 whole entry): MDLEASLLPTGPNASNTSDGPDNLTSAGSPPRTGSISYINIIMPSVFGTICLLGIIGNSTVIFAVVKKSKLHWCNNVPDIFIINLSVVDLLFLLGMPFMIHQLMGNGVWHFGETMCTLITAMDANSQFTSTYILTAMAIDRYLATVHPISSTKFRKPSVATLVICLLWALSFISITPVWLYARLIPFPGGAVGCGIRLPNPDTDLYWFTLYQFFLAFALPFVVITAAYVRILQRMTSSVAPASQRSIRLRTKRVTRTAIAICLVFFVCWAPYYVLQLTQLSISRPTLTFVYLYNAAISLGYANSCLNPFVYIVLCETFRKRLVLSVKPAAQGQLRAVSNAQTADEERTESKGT
structure (smiles),measurement,setting,value
CN1CCN(c2ccccc2NC(=O)Cc2ccc(Cl)cc2)CC1,IC50,[1],36 µM (not active)
Cc1ccc(S(=O)(=O)c2c(C)cc(C)nc2Oc2cccc(C(F)(F)F)c2)cc1,EC50,Mucolipin-3,5.23 µM (active)
same,EC50,[2],7.06 µM (active)
same,EC50,Ion channel NompC,> 29.9 µM (not active)
CCN1CCc2c(C#N)c(NCc3ccccc3)nc(NCCO)c2C1,IC50,[3],> 100 µM (inactive)
same,IC50,[4],> 100 µM (inactive)
same,IC50,[5],> 50 µM (not active)
COc1ccc(S(=O)(=O)N2CCCCCC2)cc1N(C)S(=O)(=O)c1ccc(C)cc1,EC50,Mucolipin-3,6.7 µM (active)
same,EC50,Ion channel NompC,> 29.9 µM (not active)
CCn1c(SCC(=O)N/N=C/C=C\c2ccco2)nc2ccccc21,IC50,[3],68.8 µM (active)
same,IC50,[4],12.3 µM (active)
O=C(/C=C(\O)c1ccccc1)C(=O)NNC(=O)c1ccccc1,EC50,[6],> 50 µM (active)
O=C1Nn2c(nc3c(c2=O)CCC3)/C1=N/Nc1cccc(Cl)c1,IC50,[7],6.15 µM (active)
same,IC50,Aminopeptidase N,83.9 µM (active)
same,IC50,Nonstructural protein 1,> 100 µM (active)
COCCn1c(N/N=C(C)/C=C/c2ccccc2)nc2c1c(=O)[nH]c(=O)n2C,EC50,[8],> 100 µM (not active)
CCn1cc(C(=O)O)c(=O)c2cc(F)c(N3CCNCC3)cc21 [NORFLOXACIN],AC50,Escherichia coli,1.33 µM (active)
same,EC50,[6],> 50 µM (active)
